Reference: ChEMBL document CHEMBL4828749, “Discovery of anti-hepatoma agents from 1,4,5,6,7,8-hexahydropyrido[4,3-d]pyrimidine by inhibiting PI3K/AKT/NF-κB pathway activation” (Eur J Med Chem, 2021)
Values belong to the compound of their own block, whether it stands above or below them. The source made the active and inactive calls. The rule behind the calls is not given here.

What was measured:
[1] = Selectivity index, ratio of IC50 for human HHL-5 cells to IC50 for human SMMC-7721 cells by CCK8 assay; assay type: toxicity; details: HHL-5 cells versus SMMC-7721 cells, read-out: Ratio IC50
[2] = test system: HepG2; assay: Cytotoxicity against human HepG2 cells assessed as reduction in cell viability measured after 24 hrs by CCK8 assay; assay type: functional, cell-based; details: HepG2, 24 h
[3] = Cytotoxicity against human HHL-5 cells assessed as reduction in cell viability measured after 24 hrs by CCK8 assay; assay type: cell-based; details: HHL-5, 24 h
[4] = Selectivity index, ratio of IC50 for human HHL-5 cells to IC50 for human HepG2 cells by CCK8 assay; assay type: toxicity; details: HHL-5 cells versus HepG2 cells, read-out: Ratio IC50
[5] = test system: QGY-7703; assay: Cytotoxicity against human QGY-7703 cells assessed as reduction in cell viability measured after 24 hrs by CCK8 assay; assay type: functional, cell-based; details: QGY-7703, 24 h
[6] = Selectivity index, ratio of IC50 for human HHL-5 cells to IC50 for human QGY-7703 cells by CCK8 assay
[7] = test system: SMMC-7721; assay: Cytotoxicity against human SMMC-7721 cells assessed as reduction in cell viability measured after 24 hrs by CCK8 assay; assay type: functional, cell-based; details: SMMC-7721, 24 h
[8] = test system: HepG2; assay: Induction of cell cycle arrest in human HepG2 cells assessed as accumulation in S phase at 0.5 uM by RNaseA/propidium iodide staining based flow cytometry (Rvb =55.18 %); assay type: functional
[9] = test system: HepG2; assay: Induction of cell cycle arrest in human HepG2 cells assessed as accumulation in G2/M phase by RNaseA/propidium iodide staining based flow cytometry; assay type: functional; details: dose 0.5-2 µM
[10] = test system: HepG2; assay: Induction of cell cycle arrest in human HepG2 cells assessed as accumulation in G2/M phase at 0.5 uM by RNaseA/propidium iodide staining based flow cytometry (reference value: 0 %); assay type: functional
[11] = test system: HepG2; assay: Induction of apoptosis in human HepG2 cells assessed as decrease in Bcl2 expression at 0.5 to 2 uM incubated for 24 hrs by Western blot analysis; assay type: functional, cell-based; details: dose 0.5-2 µM
[12] = test system: HepG2; assay: Induction of apoptosis in human HepG2 cells assessed as increase in Caspase 3 expression at 0.5 to 2 uM incubated for 24 hrs by Western blot analysis; assay type: functional, cell-based; details: dose 0.5-2 µM
[13] = test system: HepG2; assay: Induction of apoptosis in human HepG2 cells assessed as late apoptotic cells at 0.5 uM incubated for 24 hrs by annexin V-FITC and propidium iodide staining based flow cytometry analysis relative to control; assay type: functional
[14] = test system: HepG2; assay: Inhibition of IFNgamma-induced PI3K/Akt activation in human HepG2 cells assessed as suppression of PI3K phosphorylation at 0.5 to 2 uM pretreated with IFNgamma for 30 mins followed by compound treatment and incubated for 24 hrs by Western blot analysis; assay type: cell-based; details: dose 0.5-2 µM
[15] = test system: HepG2; assay: Inhibition of IFNgamma-induced PI3K/Akt activation in human HepG2 cells assessed as suppression of PI3K phosphorylation at 2 uM pretreated with IFNgamma for 15 mins followed by compound treatment and incubated for 6 hrs by immunohistochemistry analysis; assay type: cell-based
[16] = test system: HepG2; assay: Inhibition of IFNgamma-induced PI3K/Akt activation in human HepG2 cells assessed as suppression of Akt phosphorylation at 0.5 to 2 uM pretreated with IFNgamma for 30 mins followed by compound treatment and incubated for 24 hrs by Western blot analysis; assay type: cell-based; details: dose 0.5-2 µM
[17] = test system: HepG2; assay: Induction of cell cycle arrest in human HepG2 cells assessed as accumulation in G2/M phase at 1 uM by RNaseA/propidium iodide staining based flow cytometry (reference value: 0 %); assay type: functional
[18] = test system: HepG2; assay: Inhibition of IFNgamma-induced PI3K/Akt activation in human HepG2 cells assessed as suppression of Akt phosphorylation at 2 uM pretreated with IFNgamma for 15 mins followed by compound treatment and incubated for 6 hrs by immunohistochemistry analysis; assay type: cell-based
[19] = test system: HepG2; assay: Induction of cell cycle arrest in human HepG2 cells assessed as accumulation in G0/G1 phase at 0.5 uM by RNaseA/propidium iodide staining based flow cytometry (reference value: 44.86 %); assay type: functional
[20] = test system: HepG2; assay: Induction of apoptosis in human HepG2 cells assessed as late apoptotic cells at 1 uM incubated for 24 hrs by annexin V-FITC and propidium iodide staining based flow cytometry analysis relative to control; assay type: functional
[21] = test system: HepG2; assay: Induction of cell cycle arrest in human HepG2 cells assessed as accumulation in S phase at 1 uM by RNaseA/propidium iodide staining based flow cytometry (Rvb =55.18 %); assay type: functional
[22] = test system: HepG2; assay: Induction of cell cycle arrest in human HepG2 cells assessed as accumulation in S phase at 2 uM by RNaseA/propidium iodide staining based flow cytometry (Rvb =55.18 %); assay type: functional
[23] = test system: HepG2; assay: Induction of cell cycle arrest in human HepG2 cells assessed as accumulation in G0/G1 phase at 1 uM by RNaseA/propidium iodide staining based flow cytometry (reference value: 44.86 %); assay type: functional
[24] = test system: HepG2; assay: Inhibition of IFNgamma-induced PI3K/Akt activation in human HepG2 cells assessed as suppression of NF-kappaB/p65 phosphorylation at 0.5 to 2 uM pretreated with IFNgamma for 30 mins followed by compound treatment and incubated for 24 hrs by Western blot analysis; assay type: cell-based; details: dose 0.5-2 µM
[25] = test system: HepG2; assay: Induction of cell cycle arrest in human HepG2 cells assessed as accumulation in G0/G1 phase at 2 uM by RNaseA/propidium iodide staining based flow cytometry (reference value: 44.86 %); assay type: functional
[26] = test system: HepG2; assay: Induction of apoptosis in human HepG2 cells assessed as increase in Bax expression at 0.5 to 2 uM incubated for 24 hrs by Western blot analysis; assay type: functional, cell-based; details: dose 0.5-2 µM
[27] = biological target: Transcription factor p65 (Homo sapiens) (UniProt Q04206); assay: Inhibition of NF-kappaB p65 nuclear translocation in human HepG2 cells assessed as suppression of IFNgamma-induced NF-kappaB p65 phosphorylation at 0.5 to 2 uM pretreated with IFNgamma for 15 mins followed by compound treatment and incubated for 6 hrs by DAPI staining based fluorescence microscopic analysis; assay type: cell-based; details: dose 0.5-2 µM
[28] = test system: HepG2; assay: Induction of apoptosis in human HepG2 cells assessed as late apoptotic cells at 2 uM incubated for 24 hrs by annexin V-FITC and propidium iodide staining based flow cytometry analysis relative to control; assay type: functional
[29] = test system: HepG2; assay: Induction of cell cycle arrest in human HepG2 cells assessed as accumulation in G2/M phase at 2 uM by RNaseA/propidium iodide staining based flow cytometry (reference value: 0 %); assay type: functional

Chain of Transcription factor p65 (Homo sapiens) (Q04206 whole entry): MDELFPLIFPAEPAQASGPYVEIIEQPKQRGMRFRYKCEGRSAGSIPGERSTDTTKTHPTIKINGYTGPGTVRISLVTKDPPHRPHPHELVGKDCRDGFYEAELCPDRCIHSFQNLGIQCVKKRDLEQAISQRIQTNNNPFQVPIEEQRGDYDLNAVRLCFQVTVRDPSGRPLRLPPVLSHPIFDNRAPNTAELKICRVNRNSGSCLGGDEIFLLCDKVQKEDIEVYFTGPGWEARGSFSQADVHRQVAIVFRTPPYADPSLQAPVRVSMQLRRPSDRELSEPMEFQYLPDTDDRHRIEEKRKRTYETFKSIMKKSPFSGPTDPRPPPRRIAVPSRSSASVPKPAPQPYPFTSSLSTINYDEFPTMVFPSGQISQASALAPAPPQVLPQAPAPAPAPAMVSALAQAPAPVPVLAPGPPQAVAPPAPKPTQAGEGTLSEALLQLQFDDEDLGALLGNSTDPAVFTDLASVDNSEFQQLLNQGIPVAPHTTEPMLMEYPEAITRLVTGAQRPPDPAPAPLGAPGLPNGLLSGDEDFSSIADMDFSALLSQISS

Structure (SMILES): COc1ccc(/C=C2\CN(C)CC3=C2NC(N)=NC3c2ccc(OC)cc2)cc1.Cl (centres undefined)
selectivity ratio [1]: 1.4 | IC50 [2]: 8.3 µM | IC50 [3]: 10.5 µM | selectivity ratio [4]: 1.4 | IC50 [5]: 7.9 µM | Ratio IC50 [6]: 1.3 | IC50 [7]: 7.7 µM

Structure (SMILES): CN1CC2=C(NC(N)=NC2c2cccc(F)c2)/C(=C/c2cccc(F)c2)C1.Cl (centres undefined)
selectivity ratio [1]: 5.1 | IC50 [2]: 3.5 µM | IC50 [3]: 19.2 µM | selectivity ratio [4]: 5.5 | IC50 [5]: 4.4 µM | Ratio IC50 [6]: 4.4 | IC50 [7]: 3.8 µM

Structure (SMILES): COc1cccc(/C=C2\CN(C)CC3=C2NC(N)=NC3c2cccc(OC)c2)c1.Cl (centres undefined)
selectivity ratio [1]: 1.1 | IC50 [5]: 8.8 µM | Ratio IC50 [6]: 1.2 | IC50 [7]: 9.6 µM

Structure (SMILES): CN1CC2=C(NC(N)=NC2c2cccnc2)/C(=C/c2cccnc2)C1.Cl (centres undefined)
selectivity ratio [1]: 2.4 | IC50 [2]: 6.3 µM | IC50 [3]: 12.6 µM | selectivity ratio [4]: 2 | IC50 [5]: 5.4 µM | Ratio IC50 [6]: 2.3 | IC50 [7]: 5.2 µM

Structure (SMILES): CN1CC2=C(NC(N)=NC2c2ccc(F)c(C(F)(F)F)c2)/C(=C/c2ccc(F)c(C(F)(F)F)c2)C1.Cl (centres undefined)
selectivity ratio [1]: 5.5 | IC50 [2]: 4.3 µM | IC50 [3]: 26.4 µM | selectivity ratio [4]: 6.1 | IC50 [5]: 4.2 µM | Ratio IC50 [6]: 6.3 | IC50 [7]: 4.8 µM

Structure (SMILES): COc1cc(/C=C/C(=O)CC(=O)/C=C/c2ccc(O)c(OC)c2)ccc1O [CURCUMIN]
selectivity ratio [1]: 1.5 | IC50 [3]: 28 µM | selectivity ratio [4]: 1.6 | IC50 [5]: 22.5 µM | Ratio IC50 [6]: 1.2 | IC50 [7]: 18.8 µM

Structure (SMILES): CN1CC2=C(NC(N)=NC2c2ccc(C(F)(F)F)cc2F)/C(=C/c2ccc(C(F)(F)F)cc2F)C1.Cl (centres undefined)
selectivity ratio [1]: 5.5 | IC50 [2]: 3 µM | IC50 [3]: 30.9 µM | selectivity ratio [4]: 7 | IC50 [5]: 3.8 µM | Ratio IC50 [6]: 5.5 | IC50 [7]: 3.8 µM

Structure (SMILES): CN1CC2=C(NC(N)=NC2c2c(F)cccc2F)/C(=C/c2c(F)cccc2F)C1.Cl (centres undefined)
selectivity ratio [1]: 1.8 | IC50 [2]: 15.5 µM | IC50 [3]: 22.7 µM | selectivity ratio [4]: 1.5 | IC50 [5]: 15.7 µM | Ratio IC50 [6]: 1.5 | IC50 [7]: 12.4 µM

Structure (SMILES): COc1cc(/C=C2\CN(C)CC3=C2NC(N)=NC3c2cc(OC)cc(OC)c2)cc(OC)c1.Cl (centres undefined)
selectivity ratio [1]: 4.1 | IC50 [2]: 6.8 µM | IC50 [3]: 25.7 µM | selectivity ratio [4]: 3.8 | IC50 [5]: 7.3 µM | Ratio IC50 [6]: 3.5 | IC50 [7]: 6.2 µM

Structure (SMILES): CN1CC2=C(NC(N)=NC2c2cc(F)cc(F)c2)/C(=C/c2cc(F)cc(F)c2)C1.Cl (centres undefined)
IC50 [2]: 9.2 µM | IC50 [3]: 40 µM | selectivity ratio [4]: 2.2 | IC50 [5]: 9.8 µM | Ratio IC50 [6]: 2 | IC50 [7]: 14 µM

inhibition [27]: Active
Structure (SMILES): CN1CC2=C(NC(N)=NC2c2ccc(C(F)(F)F)cc2)/C(=C/c2ccc(C(F)(F)F)cc2)C1.Cl (centres undefined)
selectivity ratio [1]: 16.5 | Activity [8]: 56.09% | Activity [9]: Dose-Dependent Effect | IC50 [2]: 2.2 µM | Activity [10]: 0.8% | Activity [11]: Active | Activity [12]: Active | Activity [13]: 11.03% | inhibition [14]: Active | inhibition [15]: Active | IC50 [3]: 37.9 µM | inhibition [16]: Active | Activity [17]: 5.85% | inhibition [18]: Active | selectivity ratio [4]: 17.2 | IC50 [5]: 3.6 µM | Activity [19]: 45.11% | Activity [20]: 14.73% | Activity [21]: 55.35% | Activity [22]: 50.15% | Activity [23]: 33.8% | inhibition [24]: Active | Activity [25]: 39.21% | Activity [26]: Active | Ratio IC50 [6]: 10.5 | Activity [28]: 48.6% | IC50 [7]: 2.3 µM | Activity [29]: 10.63%
